Here are results for one compound from PMC4129416, “YLT192, a Novel, Orally Active Bioavailable Inhibitor of VEGFR2 Signaling with Potent Antiangiogenic Activity and Antitumor Efficacy in Preclinical Models” (Scientific Reports, 2014).

One data set concerns the target T1, Aurora-A (Homo sapiens, UniProt O14965).
T1 construct: purchased Millipore (Kinase Profile Service, UK)
Put plainly: Radiometric kinase assay (Millipore Kinase Profile Service). Format: biochemical. The conditions noted are these: means ± SD, two independent experiments, read-out: inhibition rate at 1 μM (%). The procedure: (§1) YLT192 was designed and synthesized in the State Key Laboratory of Biotherapy, Sichuan University (Sichuan, China). Its structural formula and synthesis route was shown in Fig. 1A and Supplementary Figure S1, respectively. The kinase inhibitory activity of YLT192 was measured by the use of radiometric assays provided by Kinase Profile Service (Millipore, UK). The effects of YLT192 on kinase activity were detected using the scintillation proximity assay method at an enzymatic level. […] In addition, the inhibitory activity of YLT192 was examined against platelet-derived growth factor receptor (PDGFR)-related kinases because of their structural similarity to the VEGFR2. […] Moreover, excellent selectivity for VEGFR2 was evident compared with a range of unrelated tyrosine and serine/threonine kinases, including fibroblast growth factor receptor 3, polo-like kinase 1, aurora-A, Axl, MET, protein kinase A, c-RAF etc.

In another data set the target is T2, Aurora-B (Homo sapiens, UniProt Q96GD4).
T2 construct: purchased Millipore (Kinase Profile Service, UK)
The description is as above. Format: biochemical. The following applies: means ± SD, two independent experiments, read-out: inhibition rate at 1 μM (%). The procedure: as §1

A further data set concerns the target T3, CDK2/cyclinE (Homo sapiens, UniProt P24941).
T3 construct: purchased Millipore (Kinase Profile Service, UK)
The description is as above. Format: biochemical. The following applies: means ± SD, two independent experiments, read-out: inhibition rate at 1 μM (%). The procedure:
as §1

The target in the next data set is T4, Fms (Homo sapiens, UniProt P07333).
T4 construct: purchased Millipore (Kinase Profile Service, UK)
The description is as above. It is filed as biochemical. The following applies: means ± SD, two independent experiments, read-out: inhibition rate at 1 μM (%). The procedure:
as §1

The target of the next data set is T5, GSK3β (Homo sapiens, UniProt P49841).
T5 construct: purchased Millipore (Kinase Profile Service, UK)
Described as above. Format: biochemical. The following applies: means ± SD, two independent experiments, read-out: inhibition rate at 1 μM (%). The procedure:
as §1

A further data set deals with T6, Met (Homo sapiens, UniProt P08581).
T6 construct: purchased Millipore (Kinase Profile Service, UK)
The description is as above. It is filed as biochemical. The following applies: means ± SD, two independent experiments, read-out: inhibition rate at 1 μM (%). The protocol:
as §1

The target in another data set is T7, PDGFRβ (Homo sapiens, UniProt P09619).
T7 construct: purchased Millipore (Kinase Profile Service, UK)
Described as above. It is filed as biochemical. The conditions noted are these: means ± SD, two independent experiments, read-out: inhibition rate at 1 μM (%). The procedure:
as §1

The next data set has as its target T8, PKA (Homo sapiens, UniProt P17612).
T8 construct: purchased Millipore (Kinase Profile Service, UK)
Described as above. The conditions noted are these: means ± SD, two independent experiments, read-out: inhibition rate at 1 μM (%). Format: biochemical. The protocol: as §1

Another data set concerns BxPC-3. Put plainly: Inhibition of tumor cell growth. It is filed as cell-based. The following applies: BxPC-3, human pancreatic cancer; 48 hour treatment; means ± SD, n=3. The procedure: (§2) The proliferative inhibitory ability of YLT192 on tumor cells was investigated. […] Inhibition of cell proliferation is a possible approach for cancer treatment. EdU incorporation assay was performed to investigate the anti-proliferative effects of YLT192 against U251 and HCT116 cells.
(§3) treatment with YLT192. Data are means ± SD, n=3.
(§4) cell line cell type IC50(μM) […]

The next data set deals with Hep G2. Put plainly: Inhibition of tumor cell growth. The following applies: HepG2; Hep G2, human hepatocellular carcinoma; 48 hour treatment; means ± SD, n=3. Format: cell-based. The protocol:
as §2, §3, §4

A further data set concerns PANC-1. Put plainly: Inhibition of tumor cell growth. The conditions noted are these: PANC-1, human pancreatic cancer; 48 hour treatment; means ± SD, n=3. It is filed as cell-based. The protocol: as §2, §3, §4
A short description of data set [1]: Pharmacokinetics in male wistar rats. It is filed as in vivo. An excerpt: Appropriate pharmacokinetic parameters are essential to determine the efficacy of anti-cancer drugs. We determined the pharmacokinetic characteristics of YLT192 in male wistar rats. The pharmacokinetic parameters of YLT192 are summarized in Supplementary Table S2 and the plasma concentration versus time profile is shown in Supplementary Figure S3.
Supplementary Table S2: Pharmacokinetic parameters for YLT192 in rats (n=6 mice per group). Data are means ± SD. […]
Note: I.V.=intravenous, P.O.=orally administration, Cmax =maximum plasma concentration, AUC=area under the curve, T1/2=half life of the inhibitor, CL=clearance , Vz=volume of distribution, F=bioavailability
Supplementary Figure S3. Mean plasma concentration-time curves of YLT192.
After I.V.(20mg/kg) and P.O.(50mg/kg) administration of YLT192 in wistar male rats, the concentration of YLT192 in the plasma was determined by HPLC (n=6 mice per group). Data are means ± SD.

Data set [2] is described as follows: Body weight of tumor-bearing mice during treatment. It is filed as in vivo. The conditions noted are these: U251 and HCT116 tumor-bearing mice; 25, 50 and 100 mg/kg oral daily. The procedure:
Figure 5 Anti-tumor activities of YLT192 in vivo. (A) U251 and HCT116 tumor-bearing mice were treated orally with YLT192 at 25, 50 and 100 mg/kg or vehicle daily, respectively. […] (B) Body weight changes in YLT192 and vehicle treated mice. […] For A and B, data are means ± SD. (C) and (D), YLT192 inhibited tumor cell proliferation in HCT116 tumor tissues in vivo. Mice bearing HCT116 tumor xenograft were treated with YLT192 at 50 and 100 mg/kg or vehicle and sacrificed at the end of the experiment. The tumor tissues were removed for further immunohistochemistry analysis using anti-Ki67 (C) and anti-p-p44/42 MAPK antibodies (D). (E) YLT192 induced tumor cell apoptosis in HCT116 tumor in vivo. Apoptosis was measured by TUNEL staining (n = 6 mice per group). Scale bars represent 100 μm.
All animal experiments were approved and conducted by the Institutional Animal Care and Treatment Committee of Sichuan University in China (Permit Number: 20121205). […] Tumor growth and body weight was measured every three days during the treatment. Tumor volumes were calculated using the formula as follow: volume (mm^3) = 0.5 × length (mm) × width (mm)^2. Growth inhibition was calculated from the start of treatment by comparison of the mean change in tumor volume for vehicle and treated group as before.

The nature of a further data set: Acute toxicity test. Format: in vivo. The following applies: rats. The protocol:
All the HCT116 model mice were sacrificed after 24 days of treatment.
Acute toxicity test was done to investigate the safety profiles of YLT192 on rats. Briefly, 7–8 week old female and male rats (n = 10, respectively) were orally administrated with YLT192 at 3000 mg/kg. Then clinical symptoms of the rats including mortality, body weight and gross findings were observed once daily for 14 days. On day 14, the rats were sacrificed and examined by necropsy.

In the next data set the target is VEGFR2 (Homo sapiens, UniProt P35968). Put plainly: Radiometric kinase assay (Millipore Kinase Profile Service). It is filed as biochemical. The following applies: means ± SD, two independent experiments, read-out: inhibition rate at 1 μM (%). Also on record: purchased Millipore (Kinase Profile Service, UK). The protocol: as §1
Where [3] appears, read: male, Wistar, rat, plasma, po, 50 mg/kg, P.O. 50 mg/kg, means ± SD, n=6.

Chain of VEGFR2 (P35968 20-1356): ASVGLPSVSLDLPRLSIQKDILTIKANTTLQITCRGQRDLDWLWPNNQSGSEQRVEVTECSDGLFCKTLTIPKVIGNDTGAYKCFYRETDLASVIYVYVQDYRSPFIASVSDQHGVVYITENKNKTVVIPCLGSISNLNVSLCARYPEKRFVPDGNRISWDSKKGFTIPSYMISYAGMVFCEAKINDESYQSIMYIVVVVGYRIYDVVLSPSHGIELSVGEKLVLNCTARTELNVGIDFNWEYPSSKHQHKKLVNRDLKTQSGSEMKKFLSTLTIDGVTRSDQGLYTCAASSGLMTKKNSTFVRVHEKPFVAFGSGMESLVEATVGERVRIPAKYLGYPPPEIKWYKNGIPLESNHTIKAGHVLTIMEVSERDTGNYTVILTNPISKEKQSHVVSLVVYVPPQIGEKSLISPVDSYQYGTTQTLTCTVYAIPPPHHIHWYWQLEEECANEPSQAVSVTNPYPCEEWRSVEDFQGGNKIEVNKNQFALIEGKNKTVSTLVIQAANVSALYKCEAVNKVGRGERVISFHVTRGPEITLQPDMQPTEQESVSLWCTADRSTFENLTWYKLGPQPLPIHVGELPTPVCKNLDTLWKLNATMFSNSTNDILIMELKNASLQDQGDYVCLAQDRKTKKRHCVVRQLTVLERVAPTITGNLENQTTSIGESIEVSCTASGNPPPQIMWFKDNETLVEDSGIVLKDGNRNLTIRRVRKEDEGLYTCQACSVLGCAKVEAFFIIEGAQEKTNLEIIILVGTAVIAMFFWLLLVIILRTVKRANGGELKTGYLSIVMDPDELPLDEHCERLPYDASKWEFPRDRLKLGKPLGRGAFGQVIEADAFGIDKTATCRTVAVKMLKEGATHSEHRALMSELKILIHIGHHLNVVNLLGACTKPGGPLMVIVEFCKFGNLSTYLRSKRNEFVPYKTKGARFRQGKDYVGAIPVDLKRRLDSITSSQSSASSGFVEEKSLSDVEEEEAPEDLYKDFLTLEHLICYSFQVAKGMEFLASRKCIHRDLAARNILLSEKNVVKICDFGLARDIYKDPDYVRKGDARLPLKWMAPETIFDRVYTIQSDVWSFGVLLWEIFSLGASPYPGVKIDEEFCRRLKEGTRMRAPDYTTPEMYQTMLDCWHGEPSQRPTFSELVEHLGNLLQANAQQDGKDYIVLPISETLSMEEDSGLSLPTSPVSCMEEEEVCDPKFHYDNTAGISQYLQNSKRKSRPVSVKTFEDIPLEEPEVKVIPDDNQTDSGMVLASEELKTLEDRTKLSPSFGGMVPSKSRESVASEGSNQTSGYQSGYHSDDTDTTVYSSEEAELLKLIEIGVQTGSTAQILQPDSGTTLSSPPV
T1 sequence (O14965 whole entry): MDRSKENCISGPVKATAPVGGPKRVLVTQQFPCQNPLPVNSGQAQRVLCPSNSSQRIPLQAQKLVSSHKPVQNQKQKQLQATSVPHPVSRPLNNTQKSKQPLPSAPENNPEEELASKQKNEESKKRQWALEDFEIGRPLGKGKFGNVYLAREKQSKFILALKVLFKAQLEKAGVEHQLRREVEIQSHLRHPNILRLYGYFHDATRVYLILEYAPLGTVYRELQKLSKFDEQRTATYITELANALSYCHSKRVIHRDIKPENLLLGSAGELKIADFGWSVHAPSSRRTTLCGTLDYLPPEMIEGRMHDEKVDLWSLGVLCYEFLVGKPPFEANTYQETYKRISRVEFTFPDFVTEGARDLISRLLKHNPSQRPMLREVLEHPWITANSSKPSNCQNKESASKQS
T6 sequence (P08581 25-1390): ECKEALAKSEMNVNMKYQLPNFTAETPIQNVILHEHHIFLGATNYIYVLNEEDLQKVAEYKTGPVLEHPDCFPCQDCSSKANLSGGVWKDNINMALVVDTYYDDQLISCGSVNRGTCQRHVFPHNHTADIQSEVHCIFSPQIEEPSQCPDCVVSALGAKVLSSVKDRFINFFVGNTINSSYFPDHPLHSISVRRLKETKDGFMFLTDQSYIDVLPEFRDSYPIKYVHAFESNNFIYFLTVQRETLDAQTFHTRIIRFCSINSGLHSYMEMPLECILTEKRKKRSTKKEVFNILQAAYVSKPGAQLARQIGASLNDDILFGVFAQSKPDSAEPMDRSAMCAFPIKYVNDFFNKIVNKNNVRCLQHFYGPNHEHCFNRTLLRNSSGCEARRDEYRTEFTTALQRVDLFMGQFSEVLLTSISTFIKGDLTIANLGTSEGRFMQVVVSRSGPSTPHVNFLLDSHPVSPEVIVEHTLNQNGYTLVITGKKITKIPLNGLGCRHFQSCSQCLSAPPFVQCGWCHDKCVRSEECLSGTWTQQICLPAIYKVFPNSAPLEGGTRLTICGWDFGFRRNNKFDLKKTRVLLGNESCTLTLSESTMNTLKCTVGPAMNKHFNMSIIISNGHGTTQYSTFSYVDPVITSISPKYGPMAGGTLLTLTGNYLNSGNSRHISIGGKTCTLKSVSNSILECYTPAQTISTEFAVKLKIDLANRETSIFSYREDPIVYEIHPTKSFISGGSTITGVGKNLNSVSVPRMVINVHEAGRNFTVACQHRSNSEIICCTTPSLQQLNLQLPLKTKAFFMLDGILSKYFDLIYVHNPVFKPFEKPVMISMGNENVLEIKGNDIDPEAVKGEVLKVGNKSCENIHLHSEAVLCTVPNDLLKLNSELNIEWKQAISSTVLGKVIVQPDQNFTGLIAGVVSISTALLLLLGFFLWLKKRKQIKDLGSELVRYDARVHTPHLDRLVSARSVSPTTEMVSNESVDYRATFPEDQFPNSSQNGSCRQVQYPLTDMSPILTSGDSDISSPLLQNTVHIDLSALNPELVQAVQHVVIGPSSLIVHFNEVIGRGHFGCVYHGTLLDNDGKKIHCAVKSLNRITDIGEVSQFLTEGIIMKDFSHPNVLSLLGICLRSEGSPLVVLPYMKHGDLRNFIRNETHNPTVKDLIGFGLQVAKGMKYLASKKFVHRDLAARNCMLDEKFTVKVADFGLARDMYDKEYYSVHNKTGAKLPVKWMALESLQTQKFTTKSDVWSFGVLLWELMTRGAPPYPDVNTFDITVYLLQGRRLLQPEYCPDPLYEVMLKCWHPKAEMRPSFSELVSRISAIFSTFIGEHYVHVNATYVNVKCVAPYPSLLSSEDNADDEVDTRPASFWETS
T2 sequence (Q96GD4 whole entry): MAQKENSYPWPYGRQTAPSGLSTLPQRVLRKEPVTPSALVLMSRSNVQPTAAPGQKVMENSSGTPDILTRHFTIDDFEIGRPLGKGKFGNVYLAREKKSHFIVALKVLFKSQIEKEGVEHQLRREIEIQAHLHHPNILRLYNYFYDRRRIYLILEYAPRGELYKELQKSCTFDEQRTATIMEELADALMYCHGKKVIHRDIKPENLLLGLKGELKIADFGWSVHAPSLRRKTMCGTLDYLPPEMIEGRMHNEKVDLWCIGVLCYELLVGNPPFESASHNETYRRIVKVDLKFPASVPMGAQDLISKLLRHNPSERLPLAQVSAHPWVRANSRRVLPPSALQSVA
T7 sequence (P09619 33-1106): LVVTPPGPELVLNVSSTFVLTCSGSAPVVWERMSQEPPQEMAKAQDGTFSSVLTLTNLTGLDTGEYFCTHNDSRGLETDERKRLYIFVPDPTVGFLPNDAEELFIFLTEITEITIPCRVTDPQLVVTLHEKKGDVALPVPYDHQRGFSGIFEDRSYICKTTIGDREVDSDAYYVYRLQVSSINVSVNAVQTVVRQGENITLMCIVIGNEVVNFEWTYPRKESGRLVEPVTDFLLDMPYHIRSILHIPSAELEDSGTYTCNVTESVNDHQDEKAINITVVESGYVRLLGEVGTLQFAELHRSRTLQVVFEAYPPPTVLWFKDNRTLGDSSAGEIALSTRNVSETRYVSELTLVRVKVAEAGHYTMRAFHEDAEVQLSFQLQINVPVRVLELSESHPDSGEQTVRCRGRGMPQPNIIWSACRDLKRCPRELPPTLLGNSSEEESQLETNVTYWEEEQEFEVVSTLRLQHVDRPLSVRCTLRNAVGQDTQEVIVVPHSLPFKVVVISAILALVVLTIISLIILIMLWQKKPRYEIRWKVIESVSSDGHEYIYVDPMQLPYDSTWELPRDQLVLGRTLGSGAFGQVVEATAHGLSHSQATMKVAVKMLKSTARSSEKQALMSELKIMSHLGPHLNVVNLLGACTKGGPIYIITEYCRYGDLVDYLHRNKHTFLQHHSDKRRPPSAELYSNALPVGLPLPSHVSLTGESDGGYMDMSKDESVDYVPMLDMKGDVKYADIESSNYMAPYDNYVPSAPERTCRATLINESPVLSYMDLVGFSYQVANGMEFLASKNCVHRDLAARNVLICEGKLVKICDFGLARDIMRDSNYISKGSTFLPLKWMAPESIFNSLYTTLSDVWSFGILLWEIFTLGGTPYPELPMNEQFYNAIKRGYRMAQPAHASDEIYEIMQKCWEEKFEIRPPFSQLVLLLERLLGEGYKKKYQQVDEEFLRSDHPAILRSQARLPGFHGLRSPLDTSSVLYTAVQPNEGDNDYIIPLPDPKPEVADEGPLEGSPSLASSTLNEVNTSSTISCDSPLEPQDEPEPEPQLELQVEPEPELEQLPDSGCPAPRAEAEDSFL
T5 sequence (P49841 whole entry): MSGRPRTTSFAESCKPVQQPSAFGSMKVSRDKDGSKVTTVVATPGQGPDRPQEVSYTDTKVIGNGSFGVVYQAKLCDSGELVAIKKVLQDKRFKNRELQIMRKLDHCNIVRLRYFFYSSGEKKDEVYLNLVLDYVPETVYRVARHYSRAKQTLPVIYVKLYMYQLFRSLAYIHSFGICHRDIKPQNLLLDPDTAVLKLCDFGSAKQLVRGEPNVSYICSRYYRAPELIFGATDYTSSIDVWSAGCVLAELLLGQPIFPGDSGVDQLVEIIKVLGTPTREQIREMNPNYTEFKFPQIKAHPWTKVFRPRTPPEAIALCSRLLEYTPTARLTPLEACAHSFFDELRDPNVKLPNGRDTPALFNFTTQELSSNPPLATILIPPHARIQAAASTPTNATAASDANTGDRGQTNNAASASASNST

As usually defined, the inhibition is the relative decrease from the control value, in per cent. As usually defined, the IC50 is the concentration at which inhibition is half-maximal. For orientation: half-life means how long it takes for the measured level to halve. Higher therefore signals slow loss. In general, AUC(0-inf) refers to the area under the concentration-time curve extrapolated to infinity. In general, bioavailability refers to the share of a dose that reaches the circulation, judged against a reference dose that is usually intravenous. The Cmax is the maximum level reached in the sampled fluid or tissue. The term NOAEL denotes the highest dose or exposure tested at which no adverse effect was seen. Take `CNC(=O)c1cc(Oc2ccc(NC(=O)c3cccc(OC)c3)cc2)ccn1` [YLT192]: the inhibition at 1 µM on Aurora-A is -1 ± 4%; on Aurora-B, 23 ± 5%; on CDK2/cyclinE, -9 ± 3%; on Fms it was 35 ± 11%; at GSK3β it was 4 ± 6%; on Met, -2 ± 6%. Also, the inhibition at 1 µM at PDGFRβ is 7 ± 8%; on PKA it was -10 ± 4%; at VEGFR2 it was 93 ± 3%. Further, the results for the concentration for half-maximal inhibition (IC50) in the data set with BxPC-3, in the data set on Hep G2 and with PANC-1 were 8.2 ± 0.6 µM, 7.9 ± 0.5 µM and 9.8 ± 1.9 µM, respectively. For the same compound, the Vz in [1] (P.O. 50 mg/kg, means ± SD, n=6) is 7.84 ± 1.12 L/kg. Further, the half-life in data set [1] (male, Wistar, rat, plasma, iv, 20 mg/kg, I.V. 20 mg/kg, means ± SD, n=6) was 4.1 ± 2.1 h; in [1] (setting [3]), 9.1 ± 4.1 h. Besides, the AUC(0-inf) in [1] (male, Wistar, rat, plasma, iv, I.V. 20 mg/kg, means ± SD, n=6) amounted to 65900 ± 6200 ng·h/mL; in [1] (male, Wistar, rat, plasma, po, P.O. 50 mg/kg, means ± SD, n=6), 83300 ± 21900 ng·h/mL. Besides, the Vd in [1] (male, Wistar, rat, plasma, iv, I.V. 20 mg/kg, means ± SD, n=6, read-out: Vz) was determined as 1.79 ± 0.24 L/kg. In data set [1] (male, Wistar, rat, plasma, oral, P.O. 50 mg/kg vs I.V. 20 mg/kg, read-out: F (oral bioavailability)), the bioavailability came to 50.5%. The compound also registered a Cmax in [1] (setting [3]) of 4100 ± 400 ng/mL. Moreover, in data set [2], the “body weight vs vehicle group” value is “no significant difference”. In “Acute toxicity test” (both sexes, rat, in vivo, single oral 3000 mg/kg, 14 days observation, read-out: No Observed Adverse Effect Level (NOAEL)), the NOAEL at 14 days was > 3000 mg/kg. For the same compound, in “Acute toxicity test” (oral 3000 mg/kg, 14 days), the “mortality, clinical signs, and body weight” value was “no obvious changes were observed”.
